For 24 molecules, pIC50 results are on record in patent US8153809B2, “Dihydropyridone ureas as P2X7 modulators” (Roche Palo Alto LLC, priority 2008, dated 2012).

The assay concerns the target T1, P2X7 (UniProt Q99572).
T1 sequence (Q99572 1-595): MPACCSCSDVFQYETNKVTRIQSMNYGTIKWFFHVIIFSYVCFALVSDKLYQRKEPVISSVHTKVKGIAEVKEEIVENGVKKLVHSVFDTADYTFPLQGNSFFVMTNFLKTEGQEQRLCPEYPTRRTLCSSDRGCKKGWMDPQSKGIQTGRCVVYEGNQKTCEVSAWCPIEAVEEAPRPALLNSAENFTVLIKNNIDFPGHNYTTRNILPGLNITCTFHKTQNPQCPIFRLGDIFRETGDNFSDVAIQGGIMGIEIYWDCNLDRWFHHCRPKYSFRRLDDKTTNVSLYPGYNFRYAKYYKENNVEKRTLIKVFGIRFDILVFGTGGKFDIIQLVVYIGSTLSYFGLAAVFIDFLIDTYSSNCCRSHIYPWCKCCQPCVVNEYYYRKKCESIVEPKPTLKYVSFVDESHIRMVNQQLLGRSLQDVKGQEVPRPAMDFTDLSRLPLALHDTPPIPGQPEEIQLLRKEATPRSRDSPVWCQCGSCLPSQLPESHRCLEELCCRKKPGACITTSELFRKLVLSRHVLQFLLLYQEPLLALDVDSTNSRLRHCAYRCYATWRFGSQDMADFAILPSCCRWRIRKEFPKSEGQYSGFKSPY
Nature of the assay: pIC50 values for P2X7 (Table 1). The format is cell-based. The procedure:
Intracellular Calcium Flux (FLIPR) Assay
Compound and Reagent Preparation
Stock solutions of compounds were prepared from powders as a 10 mM DMSO stock solution. These solutions were stored at RT during the two week period of these experiments to prevent freeze-thaw of the DMSO stocks. The DMSO stocks were added to the appropriate assay buffer at a concentration of 10 μM, and then diluted serially to the final concentrations that were tested. […] The aqueous solutions of compounds as well as ATP (Sigma A7699) and BzATP (Sigma B6396) were prepared fresh for each day of experiment.
1321N1 cells stably expressing the full length human P2X7 gene (1321N1-hP2X7) and HEK293 cells stably expressing the full length rat P2X7 gene (HEK293-rP2X7) were obtained from the Roche Cell Culture Facility. 1321N1-hP2X7 cells were grown in Dulbecco's Modified Eagle's Medium (DMEM) high glucose supplemented with 10% FBS and 250 μg/mL G418. HEK293-rP2X7 cells were grown in DMEM/F-12 supplemented with 10% FBS, 1 mM CaCl2, 2 mM MgCl2, 2 mM L-Glutamine and 500 μg/ml G418. Cells were split such that they never became >70% confluent.
Intracellular Calcium Flux (FLIPR)
On the day prior to the experiment, 1321N1-hP2X7 or HEK293-rP2X7 cells were released into suspension with calcium-free PBS+Versene and washed by centrifugation with calcium-free PBS to remove the Versene.
On the day of the experiment, plates were washed with FLIPR buffer (calcium- and magnesium-free Hank's Balanced Salt Solution (HBSS) supplemented with 10 mM Hepes, 2.5 mM probenecid and 2 mM calcium chloride) using a BIO-TEK 96 channel plate washer and incubated with […] fluo-3 dye at 37° C. for one hr. The dye was then removed by plate washing and the cells were allowed to equilibrate for 20 min at room temperature with antagonist or vehicle (FLIPR buffer). Agonist (100 μM BzATP final concentration for hP2X7; 5 μM BzATP final concentration or rP2X7) was added online with the FLIPR and fluorescence measurements made at 1 sec intervals for 60 sec followed by 3 sec intervals for a further 4 min (5 min total). A final addition of 5 μM ionomycin was made and the maximal BzATP-evoked fluorescence normalized to the maximal ionomycin-evoked fluorescence.
As for `O=C1C=CN(C(=O)Nc2cc(O)c(Cl)cc2Br)[C@H](c2ccc(F)cc2)C1` [Compound 24, (S)-2-(4-Fluoro-phenyl)-4-oxo-3,4-dihydro-2H-pyridine-1-carboxylic acid (2-bromo-4-chloro-5-hydroxy-phenyl)-amide], the pIC50 (in general, the IC50 on a negative log10 scale, so that one unit is a factor of ten) turned out to be 6.71.

Turning to `CNC(=O)COc1cc(NC(=O)N2C=CC(=O)C[C@H]2c2ccc(F)cc2)c(Br)cc1Cl` [Compound 25, (S)-2-(4-Fluoro-phenyl)-4-oxo-3,4-dihydro-2H-pyridine-1-carboxylic acid (2-bromo-4-chloro-5-methylcarbamoylmethoxy-phenyl)-amide], the negative-log IC50 (pIC50) worked out at 6.785.

`COc1cc(C)c(NC(=O)N2C=CC(=O)C[C@H]2c2ccc(F)cc2)cc1OC` [Compound 26, (S)-2-(4-Fluoro-phenyl)-4-oxo-3,4-dihydro-2H-pyridine-1-carboxylic acid (4,5-dimethoxy-2-methyl-phenyl)-amide] had a pIC50 of 7.93.

On to `COC(=O)c1cc(NC(=O)N2C=CC(=O)C[C@H]2c2ccc(F)cc2)c(Br)cc1Cl` [Compound 27, 4-Bromo-2-chloro-5-{[(S)-2-(4-fluoro-phenyl)-4-oxo-3,4-dihydro-2H-pyridine-1-carbonyl]-amino}-benzoic acid methyl ester], for which the pIC50 was found to be 7.26.

As to `COc1cc(NC(=O)N2C=CC(=O)C[C@H]2c2ccc(F)cc2)c(Br)cc1S(C)(=O)=O` [Compound 28, (S)-2-(4-Fluoro-phenyl)-4-oxo-3,4-dihydro-2H-pyridine-1-carboxylic acid (2-bromo-4-methanesulfonyl-5-methoxy-phenyl)-amide], the pIC50 is recorded as 6.435.

`COc1cc(NC(=O)N2C=CC(=O)C[C@H]2c2cccc(F)c2)c(Br)cc1C` [Compound 29, (S)-2-(3-Fluoro-phenyl)-4-oxo-3,4-dihydro-2H-pyridine-1-carboxylic acid (2-bromo-5-methoxy-4-methyl-phenyl)-amide] yielded a pIC50 of 7.93.

As for `COC(=O)COc1cc(NC(=O)N2C=CC(=O)C[C@H]2c2ccc(F)cc2)c(Br)cc1Cl` [Compound 30, (4-Bromo-2-chloro-5-{[(S)-2-(4-fluoro-phenyl)-4-oxo-3,4-dihydro-2H-pyridine-1-carbonyl]-amino}-phenoxy)-acetic acid methyl ester], the pIC50 is 6.7.

As for `COC(=O)COc1cc(N(CC(=O)OC)C(=O)N2C=CC(=O)C[C@H]2c2ccc(F)cc2)c(Br)cc1Cl` [Compound 31, (4-Bromo-2-chloro-5-{[(S)-2-(4-fluoro-phenyl)-4-oxo-3,4-dihydro-2H-pyridine-1-carbonyl]-methoxycarbonylmethyl-amino}-phenoxy)-acetic acid methyl ester], the negative logarithm of the IC50 (pIC50) is listed as 5.27.

On to `O=C(O)COc1cc(NC(=O)N2C=CC(=O)C[C@H]2c2ccc(F)cc2)c(Br)cc1Cl` [Compound 32, (4-Bromo-2-chloro-5-{[(S)-2-(4-fluoro-phenyl)-4-oxo-3,4-dihydro-2H-pyridine-1-carbonyl]-amino}-phenoxy)-acetic acid], for which the negative logarithm of the IC50 (pIC50) was determined as 5.365.

In the case of `COCCOc1cc(NC(=O)N2C=CC(=O)C[C@H]2c2ccc(F)cc2)c(Br)cc1Cl` [Compound 33, (S)-2-(4-Fluoro-phenyl)-4-oxo-3,4-dihydro-2H-pyridine-1-carboxylic acid [2-bromo-4-chloro-5-(2-methoxy-ethoxy)-phenyl]-amide], the negative-log IC50 (pIC50) is reported as 7.27.

Take `COc1ccc(NC(=O)N2C=CC(=O)C[C@H]2c2ccc(F)cc2)cc1OC` [Compound 34, (S)-2-(4-Fluoro-phenyl)-4-oxo-3,4-dihydro-2H-pyridine-1-carboxylic acid (3,4-dimethoxy-phenyl)-amide]: the pIC50 turned out to be 7.2425.

`COc1cc(NC(=O)N2C=CC(=O)C[C@H]2c2ccc(F)cc2)c(F)cc1Cl` [Compound 35, (S)-2-(4-Fluoro-phenyl)-4-oxo-3,4-dihydro-2H-pyridine-1-carboxylic acid (4-chloro-2-fluoro-5-methoxy-phenyl)-amide] came in with a negative logarithm of the IC50 (pIC50) of 7.195.

Molecule `Cc1n[nH]c2cc(NC(=O)N3C=CC(=O)C[C@H]3c3ccc(F)cc3)c(Br)cc12` [Compound 36, (S)-2-(4-Fluoro-phenyl)-4-oxo-3,4-dihydro-2H-pyridine-1-carboxylic acid (5-bromo-3-methyl-1H-indazol-6-yl)-amide] displayed a negative logarithm of the IC50 (pIC50) of 6.905.

For the molecule `O=C1C=CN(C(=O)Nc2cc3c(cc2Br)OCO3)C(c2ccc(F)cc2)C1` (stereo not drawn) [Compound 37], the pIC50 stood at 7.457.

Regarding `COC(=O)c1cc(Br)c(NC(=O)N2C=CC(=O)C[C@H]2c2ccc(F)cc2)cc1OC` [Compound 38, 5-Bromo-4-{[(S)-2-(4-fluoro-phenyl)-4-oxo-3,4-dihydro-2H-pyridine-1-carbonyl]-amino}-2-methoxy-benzoic acid methyl ester], the pIC50 came to 6.89.

In turn, `COC(=O)c1cc(Br)c(NC(=O)N2C=CC(=O)C[C@H]2c2cccc(F)c2)cc1OC` [Compound 39, 5-Bromo-4-{[(S)-2-(3-fluoro-phenyl)-4-oxo-3,4-dihydro-2H-pyridine-1-carbonyl]-amino}-2-methoxy-benzoic acid methyl ester] had a negative-log IC50 (pIC50) of 7.06.

`O=C1C=CN(C(=O)Nc2cc(OCCO)c(Cl)cc2Br)[C@H](c2ccc(F)cc2)C1` [Compound 40, (S)-2-(4-Fluoro-phenyl)-4-oxo-3,4-dihydro-2H-pyridine-1-carboxylic acid [2-bromo-4-chloro-5-(2-hydroxy-ethoxy)-phenyl]-amide] showed a pIC50 of 7.607.

Consider `COc1cc(NC(=O)N2C=CC(=O)CC2c2ccccc2F)c(Br)cc1C` (stereo not drawn) [Compound 41, 2-(2-Fluoro-phenyl)-4-oxo-3,4-dihydro-2H-pyridine-1-carboxylic acid (2-bromo-5-methoxy-4-methyl-phenyl)-amide], for which the pIC50 came out at 6.43.

`COc1cc(NC(=O)N2C=CC(=O)C[C@H]2c2ccc(F)cc2)c(Br)cc1OC(F)F` [Compound 42, (S)-2-(4-Fluoro-phenyl)-4-oxo-3,4-dihydro-2H-pyridine-1-carboxylic acid (2-bromo-4-difluoromethoxy-5-methoxy-phenyl)-amide]: the negative logarithm of the IC50 (pIC50) stood at 7.503.

On to `COc1cc(NC(=O)N2C=CC(=O)CC2c2ccc(F)c(F)c2)c(Br)cc1C` (stereo not drawn) [Compound 44, 2-(3,4-Difluoro-phenyl)-4-oxo-3,4-dihydro-2H-pyridine-1-carboxylic acid (2-bromo-5-methoxy-4-methyl-phenyl)-amide], for which the negative logarithm of the IC50 (pIC50) came to 7.383.

In turn, `COc1cc(NC(=O)N2C=CC(=O)C[C@H]2c2ccc(F)cc2)ccc1C` [Compound 45, (S)-2-(4-Fluoro-phenyl)-4-oxo-3,4-dihydro-2H-pyridine-1-carboxylic acid (3-methoxy-4-methyl-phenyl)-amide] gave a negative logarithm of the IC50 (pIC50) of 6.737.

`COc1cc(NC(=O)N2C=CC(=O)C[C@H]2c2cccc(F)c2)c(Br)cc1OC(F)F` [Compound 46, (S)-2-(3-Fluoro-phenyl)-4-oxo-3,4-dihydro-2H-pyridine-1-carboxylic acid (2-bromo-4-difluoromethoxy-5-methoxy-phenyl)-amide]: the pIC50 is 7.293.

`Cc1cc(Br)c(NC(=O)N2C=CC(=O)C[C@H]2c2ccc(F)cc2)cc1C#N` [Compound 48, (S)-2-(4-Fluoro-phenyl)-4-oxo-3,4-dihydro-2H-pyridine-1-carboxylic acid (2-bromo-5-cyano-4-methyl-phenyl)-amide] gave a negative-log IC50 (pIC50) of 6.84.

Consider `COc1cc(NC(=O)N2C=CC(=O)C[C@H]2c2ccc(F)cc2)c(F)cc1C` [Compound 49, (S)-2-(4-Fluoro-phenyl)-4-oxo-3,4-dihydro-2H-pyridine-1-carboxylic acid (2-fluoro-5-methoxy-4-methyl-phenyl)-amide], for which the negative logarithm of the IC50 (pIC50) came to 7.21.
